From patent publication EP4782431A1 (Suzhou Merna Therapeutics Co. Ltd, priority 2023, dated 2025)

Assays:
[1] = test system: chemotherapeutic drug-induced mouse model with hand-foot syndrome; assay: chemotherapeutic drug-induced mouse model with hand-foot syndrome; type: in vivo, ICR mice; conditions: for swelling of the hind limb toes of the mice / epidermal layer and the stratum corneum in the skin tissues of the hind limb toes: modeling drug oral; for swelling of the hind limb toes of the mice: 14 days: capecitabine 200 mg/kg, docetaxel 25 mg/kg; for epidermal layer and the stratum corneum in the skin tissues of the hind limb toes: 14 days: capecitabine, docetaxel; for skin of the hind limb toes of the mice (appearance): modeling for 14 days: capecitabine 200 mg/kg, docetaxel 25 mg/kg oral gavage once daily
From the text: After adaptive feeding for 7 days, SPF-grade ICR mice (male, 5-6 weeks old, with a body weight of approximately 35 g) were randomly divided into groups, including a blank control group (6 mice), a capecitabine modeling group (6 mice), a docetaxel modeling group (6 mice), a capecitabine + compound of formula (I) group (6 mice), a docetaxel + compound of formula (I) group (6 mice), a capecitabine + nicotinamide group (6 mice), and a docetaxel + nicotinamide group (6 mice). The groups were respectively administered corresponding modeling drugs by oral gavage (capecitabine at 200 mg/kg and docetaxel at 25 mg/kg) once daily; and the blank control group was administered an equivalent volume of normal saline. After administration with the chemotherapeutic drugs for 2 weeks, the ointments containing the compound of formula (I) (at a compound content of 3%) used in Example 10 were respectively applied topically in the groups, or nicotinamide was orally administered (100 mg/kg) once daily continuously for 16 days.
Measurement of the degree of swelling of toes: The degree of swelling of hind limb toes of the mice was measured using a toe swelling tester (KW-7C, Nanjing Calvin Biotechnology Co., Ltd.) before administration with the modeling drugs, after administration with the modeling drugs for 2 weeks, and before sacrifice, respectively. Before measurement, ankle joints of hind feet of the mice were marked at same positions before administration, after administration for 2 weeks, and before sacrifice. During measurement, water was properly located at the same level as the marked positions, and numerical values were recorded after becoming stable.
Pathological staining of skin tissues: Skin tissue samples were selected from hind limb toes of the mice and placed in 4% paraformaldehyde for fixation at room temperature for 4 hours. Then, the tissues were taken out and rinsed with running water for several hours. The samples were subjected to dehydration treatment with 70%, 80%, and 90% ethanol solutions, followed by treatment with a mixed solution of equal amounts of absolute alcohol and xylene for 15 minutes, and then permeabilized twice with a xylene solution for 15 minutes each time until the samples became transparent. The samples were placed in a mixture of half xylene and half paraffin for soaking for 15 minutes, and then, paraffin I and paraffin II were added for wax penetration for one hour, respectively. After embedding with paraffin, the samples were sectioned, baked, dewaxed, and hydrated. Then, the hydrated sections were placed in a hematoxylin solution (ZSGB-BIO, article No. 23041001) for staining for 3 minutes, and a differentiation solution of hydrochloric acid in ethanol was added for differentiation for 15 seconds. After rinsing with water, a Scott bluing solution (Servicebio, article No. 20230801) was added for bluing for 15 seconds. After rinsing with running water, the sections were stained with an eosin solution (Solarbio, article No. 33535) for 3 minutes, rinsed with running water, dehydrated, permeabilized, sealed, and inspected under a microscope.
Immunohistochemical staining: After baking, dewaxing, and hydration, paraffin sections of skin tissues of hind limb toes of the mice were subjected to antigen retrieval using a 0.2 M citric acid buffer solution (containing 1.534 g of citric acid, 3.1 g of sodium citrate, and 100 mL of distilled water, pH 4.7). Endogenous […] was removed using 3% hydrogen peroxide (Shandong Annjet High-Tech Disinfection Technology Co., Ltd., article No. 20290902), and the sections were incubated at room temperature for 10 minutes and then fully rinsed with a PBS buffer solution (containing 8 g of NaCl, 0.2 g of KCl, 1.44 g of Na2HPO4, and 1 M HCl, pH 7.4). The sections were permeabilized with 0.5% Triton-X-100 (AmyJet Scientific, article No. A-CSH436-100 mL), respectively permeabilized with mouse anti-IL-1β and rabbit IL-8 for 10 minutes, and not permeabilized with rabbit anti-IL-6. […]

[2] = test system: HaCaT cells; assay: m6A methylation level of human keratinocytes (EpiQuik m6A RNA methylation quantification kit); type: cell-based; conditions: 50 nM drug alone, 24 hours, relative to control group 1 (DMSO)
Experimental: HaCaT cells were cultured in DMEM culture medium containing 10% fetal bovine serum, 100 U/mL penicillin, and 100 µg/mL streptomycin. Culture dishes were placed in an incubator containing 5% CO2 for culture at 37°C for 24 hours. An equal volume of DMSO was added in control group 1, 50 nM sorafenib, capecitabine, docetaxel, and osimertinib were respectively added in control groups A, B, C, and D, and 400 nM test compounds or nicotinamide were respectively added in sample groups A1, A2, B1, B2, C1, C2, D1, and D2 after the addition of 50 nM corresponding compounds. The cells were continuously cultured for 24 hours, washed with PBS, and then collected by high-speed centrifugation. Total RNA was extracted using Trizol reagent (Sigma Aldrich), and RNA m6A methylation of a sample was quantitatively detected using an EpiQuik m6A RNA methylation quantification kit. The concentrations of positive control samples for a standard curve were 0.01 ng/µl, 0.02 ng/µl, 0.05 ng/µl, 0.1 ng/µl, 0.2 ng/µl, and 0.5 ng/µl. The absorbance at 450 nm was read using a microplate reader (Tecan GENios). A quantitative calculation formula for m6A is as follows: m6A(ng) = (absorbanceofsamplewell−absorbanceofbackroundwell)/slope of standard curve [formula] m6A(%) = m6A(ng)/RNA amount of sample(ng)*100%. [formula]

[3] = test system: HaCaT cells; assay: m6A methylation level of drug-treated HaCaT keratinocytes by nanopore sequencing; type: cell-based, human; conditions: 50 nM drug, 24 hours, vs blank control group
Experimental: 1*10^8 HaCaT cells were seeded in culture dishes, into which 50 nM drugs (including sorafenib, capecitabine, docetaxel, and osimertinib) were added, respectively. The cells were cultured in an incubator containing 5% CO2 at 37°C for 24 hours and washed with PBS after culture media were removed. Centrifugation was performed, the supernatant was discarded, and then, 400 µL of an RLT cell lysis buffer (QIAGEN, Cat.#79216) was added. A portion of samples were selected, into which 400 µL of 70% ethanol was added. The mixture was evenly stirred and then transferred to an RNeasy mini column, and RNA was extracted using an RNeasy mini kit (QIAGEN, Cat.#74104). 2 µL of an RNA sample was selected and dissolved in 98 µL of a 10 mM Tris-HCl buffer solution, and the absorbance at 260 nm was measured using a Nanodrop (Thermo Fisher Scientific) to determine the RNA concentration.
40 µg of an RNA sample was selected for enrichment of mRNA (PolyA+RNA) using an NEBNext Poly(A) mRNA magnetic isolation module (NEB, Cat.#E7490), and then, a 3' end of the above enriched mRNA (PolyA+RNA) molecule was ligated with reverse transcription adapter RTA using a direct RNA sequencing kit (Oxford Nanopore Technologies, Cat.#SQK-RNA002). A reverse transcription reaction was performed with the mRNA (PolyA+RNA) molecule as a template to synthesize a complementary strand, a terminal end of the reverse transcription adapter RTA was ligated with a sequencing adapter (RNA adapter) to form a final sequencing library, and quantitative detection was performed using a Qubit™ dsDNA HS assay kit (Invitrogen, Cat.#LOT2133187).
After quality inspection of the library, the prepared sequencing library was loaded onto a PromethION flow cell chip (Oxford Nanopore Technologies, Cat.#FLO-MIN106D), and placed in a PromethION sequencer (Oxford Nanopore Technologies) for sequencing by selecting a matched sequencing mode. Basecalling was performed on sequencing data through guppy, and m6A methylation analysis was performed on original fast5 data.

[4] = competitive suspension tests of crystal forms (XRPD); type: physicochemical; conditions: isopropanol, isopropyl acetate, and acetonitrile; 5°C, 25°C, 50°C, 3 days
Experimental: A 2θ scanning angle of the sample was 3°-40°, a scanning step size was 0.02°, and a scanning time per step was 0.12 s/step. An optical tube voltage and a current were 40 kV and 40 mA, respectively. During sample preparation, an appropriate amount of the sample was placed on a sample tray and flattened with a tool such as a glass slide to ensure a smooth and even surface.
Resulting suspensions were suspended at 5°C, 25°C, and 50°C for 3 days, respectively. The resulting suspensions were centrifuged, and solid portions were detected by XRPD.

For CC(=O)O[C@@]12CO[C@@H]1C[C@H](O)[C@@]1(C)C(=O)[C@H](O)C3=C(C)[C@@H](OC(=O)[C@H](O)[C@@H](NC(=O)OC(C)(C)C)c4ccccc4)C[C@@](O)([C@@H](OC(=O)c4ccccc4)[C@H]21)C3(C)C [Docetaxel, docetaxel], the “cytokine IL-6 in the skin tissues of the hind limb toes of the mice” value ([1]; docetaxel oral 14 days, vs normal control group, p<0.05) was “significantly increased”, the “swelling of the hind limb toes of the mice” value [1] was “swelling of the hind limb toes of the mice was caused” and the “epidermal layer and the stratum corneum in the skin tissues of the hind limb toes” value ([1]; vs normal control group) was “significantly thickened”. For the same compound, the “skin of the hind limb toes of the mice (appearance)” value ([1]; vs normal control group) was “obvious erythema, rhagades, and blisters”, the m6A fold change [2] was 5.6 fold and the “m6A methylation levels of HaCaT cells higher than that of the control group” value [3] was 3.97 fold.
For CCCCCOC(=O)Nc1nc(=O)n([C@@H]2O[C@H](C)[C@@H](O)[C@H]2O)cc1F [Capecitabine, capecitabine], the “cytokine IL-8 in the skin tissues of the hind limb toes of the mice” value ([1]; capecitabine oral 14 days, vs normal control group, p<0.05) was “significantly increased”, the “swelling of the hind limb toes of the mice” value [1] was “swelling of the hind limb toes of the mice was caused” and the “epidermal layer and the stratum corneum in the skin tissues of the hind limb toes” value ([1]; vs normal control group) was “significantly thickened”. For the same compound, the “skin of the hind limb toes of the mice (appearance)” value ([1]; vs normal control group) was “obvious erythema, rhagades, and blisters”, the m6A fold change [2] was 6.7 fold and the “m6A methylation levels of HaCaT cells higher than that of the control group” value [3] was 6.01 fold.
For NC(=O)[C@H]1CCCc2c1[nH]c1ccc(Cl)cc21 [Crystal form B, (S)-6-chloro-2,3,4,9-tetrahydro-1H-carbazole-carboxamide], the “crystal form after competitive suspension slurrying” value [4] was “converted into the crystal form F”.
